Test results as given in patent US20260263450A1, “USE OF GLYT1 INHIBITOR IN TREATMENT OF ORGAN FIBROSIS” (TIANJIN MEDICAL UNIVERSITY, priority 2023, published 2026).

Columns and labels:
[1] = tested on: A549 cells; experiment: CCK-8 cell proliferation and cytotoxicity analysis of A549 cells; type: cell-based; details: 72 h
Description: A CCK-8 kit was used to detect cell proliferation and cytotoxicity. Its working principle is as follows: In the presence of an electron coupling reagent, WST-8 (chemical name: 2-(2-methoxy-4-nitrophenyl)-3-(4-nitrophenyl)-5-(2,4-disulfophenyl)-2H-tetrazolium monosodium salt) can be reduced by mitochondrial dehydrogenases to produce a highly water-soluble orange-yellow formazan product. The intensity of the color is proportional to cell proliferation and inversely proportional to cytotoxicity. […] The OD value measured at a wavelength of 450 nm via a microplate reader can indirectly reflect the number of viable cells.
The CCK-8 assay was used to detect the viability of A549 cells after treatment with different concentrations of BLM and GlyT1 inhibitor for 72 h. […] In this example, BLM, which maintained the viability of A549 cells at approximately 80%, was selected for stimulation, and A549 cells were stimulated with 25 μM BLM to establish the cell model. […] At a concentration of 380 nM, the viability of A549 cells was greater than 50%. To obtain stable experimental results more easily, 190 nM GLYT1 IN was selected as the treatment concentration in subsequent studies.

[2] = tested on: bleomycin-induced pulmonary fibrosis; experiment: Bleomycin-induced pulmonary fibrosis in mice; type: in vivo, C57BL/6J male mice; details: for collagen deposition in lung tissue (Masson staining): 1 mg/kg and 5 mg/kg BLM; for body weight: inhibitor 0.79 mg/kg per day by gavage for 14 days from day 14 after modeling
Experimental: The dosage was 0.79 mg/kg per day, and the administration route was intragastric gavage. When used, the drug was dissolved in H2O containing 0.3% Tween 80.
C57BL/6J male mice (8-10 weeks old, weighing 24-25 g) were purchased from Beijing Huafukang Biotechnology Co., Ltd. The mice were housed in a specific pathogen-free (SPF) environment, with the room temperature maintained at 20-25° C. and the humidity controlled at 50-60%. The mice were fed normally, and the light was adjusted to a 12 h light/dark cycle. Before modeling, the mice were acclimatized to the corresponding environment for 1 week. All animal experiments were conducted in compliance with the animal care regulations and guidelines of Tianjin Medical University and were approved by the Animal Committee of Tianjin Medical University.
1. Prediluted bleomycin was prepared, and doses of 1 mg/kg and 5 mg/kg were administered on the basis of the body weights of the mice.
7. The mouse's tongue was gently pulled to one side toward the mandible with sterile padded forceps to expose the vocal cords; then, the pipette tip loaded with bleomycin was lowered to the back of the oral cavity, and the liquid was delivered through the vocal cords during inhalation. The sounds of wheezing were waited to confirm that the liquid was delivered into the trachea. For animals in the control group, an equal volume of sterile PBS was used instead of the bleomycin solution.
10. The mice were monitored daily until they were euthanized for analysis. RG1678 or water containing 0.3% Tween 80 was added to the mice by gavage every day according to their groupings.
11. When the experiment reached the appropriate time point, the mice were euthanized, their eyeballs were removed for blood collection, and then the mice were dissected to collect samples.
Mice in different groups were generated according to the abovementioned methods. The mice in the control group were given normal saline, while the mice in the experimental groups were given bleomycin at different concentrations. Fourteen days after modeling, the mice were intragastrically administered either ddH2O containing 0.3% Tween 80 or RG1678 prepared in ddH2O containing 0.3% Tween 80 via continuous gavage for 14 days; the specific experimental conditions are shown in Table 1.
1. Bleomycin stock solution (10 mg/mL): First, 10 mg of bleomycin was weighed and dissolved in 1 mL of 0.9% sodium chloride. The instillation volume for each mouse was calculated on the basis of its body weight, with the instillation volume per mouse being approximately 50 μL. The stock solution was diluted to 0.5 mg/mL and 2.5 mg/mL for subsequent instillation according to the different groups (1 mg/kg and 5 mg/kg).
3. RG1678 (0.79 mg/mL): An appropriate amount of RG1678 was dissolved in ddH2O containing 0.3% Tween 80 to prepare a stock working solution of 0.79 mg/mL. The intragastric administration volume was then calculated on the basis of the mouse's body weight, with approximately 200 μL per mouse. Before use, the stock solution was diluted to a working concentration of […].
The body weights of the mice were measured before modeling, and their body weights were monitored daily during the experiment to observe changes. A comparison was made between the body weight at the end of the experiment and that at the beginning.
To further observe lung tissue damage in mice in detail, pathological detection was performed on the mouse lung tissues in this example.
Masson staining was performed on mouse lung tissue sections. Masson staining is an experimental method used to detect the secretion and deposition levels of collagen fibers in tissues. After treatment with different staining solutions, the overall background of the tissue section appeared red, the cell nuclei were black, and the collagen fibers were blue. The content of collagen fibers can be evaluated on the basis of the depth of the blue color and the scope of its distribution. […]

[3] = tested on: A549 cells; experiment: Western blot of pulmonary fibrosis-related indicators in the in vitro bleomycin-induced pulmonary fibrosis model; type: cell-based; details: 25 μM BLM + 190 nM GLYT1 IN for 72 h; compared with BLM group
Experimental: A bleomycin-induced pulmonary fibrosis model was established in vitro, with simultaneous intervention via a GLYT1 inhibitor.
For the in vitro bleomycin-induced pulmonary fibrosis model, A549 cells were divided into […] treatment groups: the NC group (control group: treated with normal saline), the BLM group (bleomycin-treated group: treated with 25 μM BLM for 72 h), and the BLM+GLYT1 IN group (bleomycin and glycine transporter 1 inhibitor-treated group: treated with 25 μM BLM for 72 h and 190 nM GLYT1 IN for 72 h).
Western blotting was used to detect the expression levels of pulmonary fibrosis-related indicators: collagen type I alpha 1 (col1α1), collagen type III alpha 1 (col3α1), collagen type IV alpha 1 (col4α1), E-cadherin (E-Cad), and α-SMA proteins.

[4] = intervention initiated 14 days after BLM modeling, lung paraffin sections
[5] = treatment for 14 days from day 14 after modeling, compared with BLM group

Molecule	viability of A549 cells ([1]; 10 μM bleomycin)	viability of A549 cells ([1]; 25 μM BLM)	viability of A549 cells with increasing concentrations ([1]; increasing concentrations)	collagen deposition in lung tissue (Masson staining) ([2]; compared with BLM group, listed as GLYT1 IN)	collagen deposition in lung tissue (Masson staining) ([2]; compared with BLM group, listed as GlyT1 inhibitor 1)	body weight ([2]; BLM 1 or 5 mg/kg, compared with BLM group)	body weight ([2]; BLM 1 or 5 mg/kg, compared with BLM group, listed as GLYT1 IN)	change in lung weight/body weight ratio ([2]; BLM 1 or 5 mg/kg, inhibitor by gavage for 14 days from day 14 after modeling, compared with BLM group (**P<0.01, ***P<0.001))	general condition changes after modeling (delayed responses, huddling, trembling, cyanosis, decreased food intake, wrinkled skin) ([2]; BLM+RG1678 group compared with BLM group)	BLM-induced lung tissue consolidation (HE staining) [2, 4]	degree of fibrosis (HE staining) [2, 4]	collagen deposition in lung tissue (Sirius Red staining) ([2]; intervention initiated 14 days after modeling, compared with BLM stimulation)	deposition of type I collagen in lung tissue (immunohistochemistry) [2, 5]	deposition of type III collagen in lung tissue (immunohistochemistry) [2, 5]	viability of A549 cells ([1]; human, 380 nM)	E-cadherin protein expression level [3]	col1α1 protein expression level [3]	col3α1 protein expression level [3]	col4α1 protein expression level [3]	α-SMA protein expression level [3]
bleomycin	significantly affected	approximately 80%	decreased																	
C[C@H](Oc1ccc(S(C)(=O)=O)cc1C(=O)N1CCN(c2ncc(C(F)(F)F)cc2F)CC1)C(F)(F)F [RG1678]				not obvious	significantly reduce	less pronounced decrease	significantly greater	significantly alleviated	milder degrees	reduced	significantly alleviated	significantly reduced	significantly lower	significantly lower	greater than 50%	significantly increased	significantly decreased	significantly decreased	significantly decreased	significantly decreased
